A word on the IC50: it is the concentration that gives 50% inhibition. Usually melting point stands for the temperature, or range, at which the solid turns liquid.

IC50 and melting point data for 21 compounds are collected here from US6673793B2, “Oxazinoquinolones useful for the treatment of viral infections” (Pharmacia & Upjohn Co., priority 2000, dated 2004).

One series addresses T1, CMV polymerase (Human cytomegalovirus, UniProt P08546).
T1 construct: made in house; host or cells: recombinant baculovirus-infected SF-9 cells
In words: HCMV polymerase assay, scintillation proximity assay (SPA), modified version. It counts as biochemical. The conditions noted are these: modified HCMV polymerase SPA assay: compounds diluted in 100% DMSO, 4.5 mM DTT in polymerase buffer, different lot of CMV polymerase; read-out: CMV polymerase IC50. As to the method: The HCMV polymerase assay is performed using a scintillation proximity assay (SPA) as described in several references, such as N. D. Cook, et al., Pharmaceutical Manufacturing International, pages 49-53 (1992); K. Takeuchi, Laboratory Practice, September issue (1992); U.S. Pat. No. 4,568,649 (1986); which are incorporated by reference herein. Reactions are performed in 96-well plates. The assay is conducted in 100 μl volume with 5.4 mM HEPES (pH 7.5), 11.7 mM KCl, 4.5 mM MgCl2, 0.36 mg/ml BSA, and 90 nM ^3H-dTTP. Assays are run with and without CHAPS, (3-[(3-Cholamidopropyl)-dimethylammonio]-1-propane-sulfonate) at a final concentration of 2 mM. HCMV polymerase is diluted in enzyme dilution buffer containing 50% glycerol, 250 mM NaCl, 10 mM HEPES (pH 7.5), 100 μg/ml BSA, and 0.01% sodium azide. The HCMV polymerase, which is expressed in recombinant baculovirus-infected SF-9 cells and purified according to literature procedures, is added at 10% (or 10 μl) of the final reaction volume, i.e., 100 μl. Compounds are diluted in 50% DMSO and 10 μl are added to each well. Control wells contain an equivalent concentration of DMSO. Unless noted otherwise, reactions are initiated via the addition of 6 nM biotinylated poly(dA)-oligo(dT) template/primer to reaction mixtures containing the enzyme, substrate, and compounds of interest. Plates are incubated in a 25 C. or 37 C. H2O bath and terminated via the addition of 40 μl/reaction of 0.5 M EDTA (pH 8) per well. Reactions are terminated within the time-frame during which substrate incorporation is linear and varied depending upon the enzyme and conditions used, i.e., 30 min. for HCMV polymerase. Ten μl of streptavidin-SPA beads (20 mg/ml in PBS/10% glycerol) are added following termination of the reaction. Plates are incubated 10 min. at 37 C., then equilibrated to room temperature, and counted on a Packard Topcount. Linear regressions are performed and IC50's are calculated using computer software.
A modified version of the above HCMV polymerase assay is performed as described above, but with the following changes: Compounds are diluted in 100% DMSO until final dilution into assay buffer. In the previous assay, compounds are diluted in 50% DMSO. 4.5 mM dithiotherotol (DTT) is added to the polymerase buffer.
A general note: SPA uses beads or plates that emit light when radiolabelled molecules are held near them.

T1 sequence (P08546 whole entry): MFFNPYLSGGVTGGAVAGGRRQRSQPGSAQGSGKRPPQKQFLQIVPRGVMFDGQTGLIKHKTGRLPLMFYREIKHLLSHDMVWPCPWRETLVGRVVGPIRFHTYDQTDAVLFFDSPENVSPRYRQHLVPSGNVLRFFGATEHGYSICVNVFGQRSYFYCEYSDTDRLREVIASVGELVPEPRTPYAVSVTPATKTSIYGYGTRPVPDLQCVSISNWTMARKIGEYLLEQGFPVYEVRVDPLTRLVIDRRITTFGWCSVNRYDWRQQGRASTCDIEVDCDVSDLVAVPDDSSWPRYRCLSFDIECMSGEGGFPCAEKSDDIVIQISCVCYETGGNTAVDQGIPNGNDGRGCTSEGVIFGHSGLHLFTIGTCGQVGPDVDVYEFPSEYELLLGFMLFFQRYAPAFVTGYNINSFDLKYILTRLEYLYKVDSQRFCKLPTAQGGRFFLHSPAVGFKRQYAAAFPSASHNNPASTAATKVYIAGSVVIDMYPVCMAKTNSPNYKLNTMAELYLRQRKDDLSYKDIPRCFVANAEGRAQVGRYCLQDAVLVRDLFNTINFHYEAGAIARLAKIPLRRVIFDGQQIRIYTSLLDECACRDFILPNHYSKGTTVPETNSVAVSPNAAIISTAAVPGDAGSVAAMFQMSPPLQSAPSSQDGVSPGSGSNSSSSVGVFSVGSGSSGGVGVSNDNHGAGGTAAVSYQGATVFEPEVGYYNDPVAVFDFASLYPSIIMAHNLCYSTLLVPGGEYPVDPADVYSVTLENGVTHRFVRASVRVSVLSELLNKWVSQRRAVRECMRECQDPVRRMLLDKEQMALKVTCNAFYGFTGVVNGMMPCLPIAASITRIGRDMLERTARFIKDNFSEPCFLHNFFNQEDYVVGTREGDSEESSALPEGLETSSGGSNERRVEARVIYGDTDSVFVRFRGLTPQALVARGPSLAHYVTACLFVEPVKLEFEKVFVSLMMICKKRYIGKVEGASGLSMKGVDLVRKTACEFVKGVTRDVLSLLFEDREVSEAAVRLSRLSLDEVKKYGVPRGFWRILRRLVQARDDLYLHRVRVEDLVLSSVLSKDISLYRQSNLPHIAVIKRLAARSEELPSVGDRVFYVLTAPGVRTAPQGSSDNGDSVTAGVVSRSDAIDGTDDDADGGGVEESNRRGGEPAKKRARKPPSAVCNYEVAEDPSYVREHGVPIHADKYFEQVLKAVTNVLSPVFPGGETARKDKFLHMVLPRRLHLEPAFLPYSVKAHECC

Consider `O=C(NCc1ccc(Cl)cc1)c1cn2c3c(cc(CN4CCOCC4)cc3c1=O)OC(CN1CCOCC1)C2` (centres unmarked) [Example 2, N-(4-Chlorobenzyl)-2,9-bis(4-morpholinylmethyl)-7-oxo-2,3-dihydro-7H-[1,4]oxazino[2,3,4-ij]quinoline-6-carboxamide], for which the melting point was 178 to 180 °C. In addition, the IC50 at CMV polymerase is 760 nM.
Turning to `CN(C)CC1Cn2cc(C(=O)NCc3ccc(Cl)cc3)c(=O)c3cc(CN4CCOCC4)cc(c32)O1` (centres unmarked) [Example 3, N-(4-Chlorobenzyl)-2-[(dimethylamino)methyl]-9-(4-morpholinylmethyl)-7-oxo-2,3-dihydro-7H-[1,4]oxazino[2,3,4-ij]quinoline-6-carboxamide], the melting point lay in the range of 168 to 170 °C. Further, the IC50 on CMV polymerase came out at 760 nM.
The corresponding values for `CN1CCN(CC2Cn3cc(C(=O)NCc4ccc(Cl)cc4)c(=O)c4cc(CN5CCOCC5)cc(c43)O2)CC1` (centres unmarked) [Example 4, N-(4-Chlorobenzyl)-2-[(4-methyl-1-piperazinyl)methyl]-9-(4-morpholinylmethyl)-7-oxo-2,3-dihydro-7H-[1,4]oxazino[2,3,4-ij]quinoline-6-carboxamide] are 201 to 208 °C (dec.) and 1300 nM.
For `O=C(NCc1ccc(Cl)cc1)c1cn2c3c(cc(CN4CCOCC4)cc3c1=O)OC(CN1CCCC1)C2` (centres unmarked) [Example 5, N-(4-Chlorobenzyl)-9-(4-morpholinylmethyl)-7-oxo-2-(1-pyrrolidinylmethyl)-2,3-dihydro-7H-[1,4]oxazino[2,3,4-ij]quinoline-6-carboxamide], in that order: 209.5 to 212 °C and 1100 nM.
For `O=C(NCc1ccc(Cl)cc1)c1cn2c3c(cc(CN4CCOCC4)cc3c1=O)OC(CN1CCCCC1)C2` (centres unmarked) [Example 8, N-(4-Chlorobenzyl)-9-(4-morpholinylmethyl)-7-oxo-2-(1-piperidinylmethyl)-2,3-dihydro-7H-[1,4]oxazino[2,3,4-ij]quinoline-6-carboxamide], in that order: 213 to 215 °C and 1500 nM.
`O=C(NCc1ccc(Cl)cc1)c1cn2c3c(cc(CN4CCOCC4)cc3c1=O)OC(CNCc1ccncc1)C2` (centres unmarked) [Example 12, N-(4-Chlorobenzyl)-9-(4-morpholinylmethyl)-7-oxo-2-{[(4-pyridinylmethyl)amino]methyl}-2,3-dihydro-7H-[1,4]oxazino[2,3,4-ij]quinoline-6-carboxamide] came in with a melting point of 164 to 167 °C. The IC50 on CMV polymerase was 590 nM.
For `O=C(NCc1ccc(Cl)cc1)c1cn2c3c(cc(CN4CCOCC4)cc3c1=O)OC(Cn1ccnc1)C2` (centres unmarked) [Example 13, N-(4-Chlorobenzyl)-2-(1H-imidazol-1-ylmethyl)-9-(4-morpholinylmethyl)-7-oxo-2,3-dihydro-7H-[1,4]oxazino[2,3,4-ij]quinoline-6-carboxamide], the melting point was 217 to 219 °C (dec.). Also, the IC50 on CMV polymerase came to 590 nM.
For `CSCC1Cn2cc(C(=O)NCc3ccc(Cl)cc3)c(=O)c3cc(CN4CCOCC4)cc(c32)O1` (centres unmarked) [Example 14, N-(4-Chlorobenzyl)-2-[(methylsulfanyl)methyl]-9-(4-morpholinylmethyl)-7-oxo-2,3-dihydro-7H-[1,4]oxazino[2,3,4-ij]quinoline-6-carboxamide], in that order: 190 to 191 °C and 550 nM.
For `CC(C)(C)SCC1Cn2cc(C(=O)NCc3ccc(Cl)cc3)c(=O)c3cc(CN4CCOCC4)cc(c32)O1` (centres unmarked) [Example 15, 2-[(tert-Butylsulfanyl)methyl]-N-(4-chlorobenzyl)-9-(4-morpholinylmethyl)-7-oxo-2,3-dihydro-7H-[1,4]oxazino[2,3,4-ij]quinoline-6-carboxamide], in that order: 198 to 201 °C and 420 nM.
In turn, `COC(=O)CSCC1Cn2cc(C(=O)NCc3ccc(Cl)cc3)c(=O)c3cc(CN4CCOCC4)cc(c32)O1` (centres unmarked) [Example 18, Methyl ({[6-{[(4-chlorobenzyl)amino]carbonyl}-9-(4-morpholinylmethyl)-7-oxo-2,3-dihydro-7H-[1,4]oxazino[2,3,4-ij]quinolin-2-yl]methyl}sulfanyl)acetate] came in with a melting point of 182.5 to 183 °C. In addition, on CMV polymerase, the IC50 is 580 nM.
As for `CC(=O)OCC1Cn2cc(C(=O)NCc3ccc(Cl)cc3)c(=O)c3cc(CN4CCOCC4)cc(c32)O1` (centres unmarked) [Example 24, [6-{[(4-Chlorobenzyl)amino]carbonyl}-9-(4-morpholinylmethyl)-7-oxo-2,3-dihydro-7H-[1,4]oxazino[2,3,4-ij]quinolin-2-yl]methyl acetate], the melting point is 215 to 218 °C. Also, the IC50 at CMV polymerase was 740 nM.
`O=C(NCc1ccc(Cl)cc1)c1cn2c3c(cc(C#CCO)cc3c1=O)OCC2(CO)CO` [Example 31, N-(4-Chlorobenzyl)-3,3-bis(hydroxymethyl)-9-(3-hydroxy-1-propynyl)-7-oxo-2,3-dihydro-7H-[1,4]oxazino[2,3,4-ij]quinoline-6-carboxamide]: the IC50 at CMV polymerase came to 5000 nM.
As for `O=C(NCc1ccc(Cl)cc1)c1cn2c3c(cc(CCCO)cc3c1=O)OCC2(CO)CO` [Example 32, N-(4-Chlorobenzyl)-3,3-bis(hydroxymethyl)-9-(3-hydroxypropyl)-7-oxo-2,3-dihydro-7H-[1,4]oxazino[2,3,4-ij]quinoline-6-carboxamide], on CMV polymerase, the IC50 was 3000 nM.
On to `O=C(NCc1ccc(Cl)cc1)c1cn2c3c(cc(CN4CCOCC4)cc3c1=O)OC(c1ccccn1)C2` (centres unmarked) [Example 33, N-(4-Chlorobenzyl)-9-(4-morpholinylmethyl)-7-oxo-2-(2-pyridinyl)-2,3-dihydro-7H1-[1,4]oxazino[2,3,4-ij]quinoline-6-carboxamide], for which, at CMV polymerase, the IC50 is 520 nM.
As to `O=C(NCc1ccc(Cl)cc1)c1cn2c3c(cc(CN4CCOCC4)cc3c1=O)OC(c1cccnc1)C2` (centres unmarked) [Example 34, N-(4-Chlorobenzyl)-9-(4-morpholinylmethyl)-7-oxo-2-(3-pyridinyl)-2,3-dihydro-7H-[1,4]oxazino[2,3,4-ij]quinoline-6-carboxamide], the IC50 on CMV polymerase is 480 nM.
For the compound `O=C(NCc1ccc(Cl)cc1)c1cn2c3c(cc(CN4CCOCC4)cc3c1=O)OC(c1ccncc1)C2` (centres unmarked) [Example 35, N-(4-Chlorobenzyl)-9-(4-morpholinylmethyl)-7-oxo-2-(4-pyridinyl)-2,3-dihydro-7H-[1,4]oxazino[2,3,4-ij]quinoline-6-carboxamide], the IC50 at CMV polymerase is 610 nM.
The same measure, in the same setting: the result for `N#Cc1cccc(C2Cn3cc(C(=O)NCc4ccc(Cl)cc4)c(=O)c4cc(CN5CCOCC5)cc(c43)O2)c1` (centres unmarked) [Example 36, N-(4-Chlorobenzyl)-2-(3-cyanophenyl)-9-(morpholin-4-ylmethyl)-7-oxo-2,3-dihydro-7H-[1,4]oxazino[2,3,4-ij]quinoline-6-carboxamide] reads 420 nM.
The same measure, in the same setting: the result for `O=C(NCc1ccc(Cl)cc1)c1cn2c3c(cc(CN4CCOCC4)cc3c1=O)OC(c1cccs1)C2` (centres unmarked) [Example 38, N-(4-Chlorobenzyl)-9-(morpholin-4-ylmethyl)-7-oxo-2-thien-2-yl-2,3-dihydro-7H-[1,4]oxazino[2,3,4-ij]quinoline-6-carboxamide] reads 460 nM.
Still for that read-out and setting: the result for `O=C(NCc1ccc(Cl)cc1)c1cn2c3c(cc(CN4CCOCC4)cc3c1=O)OC(CNCc1ccc(Cl)cc1)C2` (centres unmarked) [Example 56, N-(4-Chlorobenzyl)-2-{[(4-chlorobenzyl)amino]methyl}-9-(morpholin-4-ylmethyl)-7-oxo-2,3-dihydro-7H-[1,4]oxazino[2,3,4-ij]quinoline-6-carboxamide] reads 660 nM.
As for `COCOc1ccccc1C1Cn2cc(C(=O)NCc3ccc(Cl)cc3)c(=O)c3cc(CN4CCOCC4)cc(c32)O1` (centres unmarked) [Example 64, N-(4-Chlorobenzyl)-2-[2-(methoxymethoxy)phenyl]-9-(morpholin-4-ylmethyl)-7-oxo-2,3-dihydro-7H-[1,4]oxazino[2,3,4-ij]quinoline-6-carboxamide], the IC50 on CMV polymerase amounted to 1050 nM.
Take `O=C(NCc1ccc(Cl)cc1)c1cn2c3c(cc(CN4CCOCC4)cc3c1=O)OC(c1ccccc1O)C2` (centres unmarked) [Example 68, N-(4-Chlorobenzyl)-2-(2-hydroxyphenyl)-9-(morpholin-4-ylmethyl)-7-oxo-2,3-dihydro-7H-[1,4]oxazino[2,3,4-ij]quinoline-6-carboxamide]: the IC50 on CMV polymerase was 820 nM.
